What all share (type): in vivo
What all share (parameters): key: 5: completely killed; 4: seriously injured; 3: considerably injured; 2: somewhat injured; 1: slightly injured; 0: not injured (normally grown)
Settings in all cases: 4 weeks after treatment

One data set deals with rice. Nature of the data set: Experiment 2 foliage treatment: rice. The method in brief:
(§1)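 Post-emergence foliar spray, wettable-powder suspension, seedlings at 2–3-leaf stage in potted cultivated soil; glasshouse chamber 4 wk; herbicidal effect scored as in Expt 1.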

Data set [1] deals with aobiyu (slender amaranth, Amaranthus viridis). The data set is described as follows: Experiment 2 foliage treatment: aobiyu. Put shortly:
as §1

Data set [2] relates to mehishiba (henry crabgrass, Digitaria cliaris). The data set is described as follows: Experiment 2 foliage treatment: mehishiba. The method in brief:
as §1

Data set [3] concerns noasagao (blue morningglory, Ipomoea indica). Nature of the data set: Experiment 3 foliage treatment: noasagao. On the procedure: (§2) Upon seedling stage (two- or three-leaved stage) of ichibi (velvetleaf, Abutilon theophrasti), onamomi (heartleaf cocklebur, Xanthium strumarium) (4L stage), noasagao (blue morningglory, Ipomoea indica) and ooinutade (pale smartweed, Persicaria lapathifolia) which were grown on a cultivated soil put in pots of 1/8850 ares, a selected compound obtained in a manner analogous to Example 8, in suspended wettable powder, was sprayed to each plant. After that, the pots were kept in a glass chamber to allow each plant to grow, and after the lapse of 4 weeks from the treatment with the selected compounds the herbicidal effects were evaluated. The evaluation of the herbicidal effects was similarly conducted as to that of Experiment 1.

Data set [4] relates to cockspur (Panicum crus-galli). Nature of the data set: Experiment 2 foliage treatment: cockspur. The method in brief: as §1
Data set [5] has as its system onamomi (heartleaf cocklebur, Xanthium strumarium). Nature of the data set: Experiment 3 foliage treatment: onamomi. The protocol: as §2
Data set [6] deals with ichibi (velvetleaf, Abutilon theophrasti). The data set is described as follows: Experiment 3 foliage treatment: ichibi. On the procedure:
as §2

The next data set concerns garden radish. The data set is described as follows: Experiment 2 foliage treatment: garden radish. The method in brief:
as §1

Data set [7] deals with ooinutade (pale smartweed, Persicaria lapathifolia). The data set is described as follows: Experiment 3 foliage treatment: ooinutade. The protocol:
as §2

Each structure is given as a SMILES string.

As for `CCOC(=O)C1=C(C(=O)N(C(=O)CC)c2cc(SCC(=O)OC)c(Cl)cc2F)CCCC1` [compound 33], the “Herbicidal Effect rice” value with rice (40 g/10a) and with rice (80 g/10a) was 1 in each case. The “Herbicidal Effect aobiyu” value in data set [1] (40 g/10a) and in data set [1] (80 g/10a) was 5 throughout. Moreover, the “Herbicidal Effect mehishiba” value in data set [2] (40 g/10a) and in data set [2] (80 g/10a) was 1 throughout. The “Herbicidal Effect noasagao” value in data set [3] (4 g/10a) came to 4; in data set [3] (8 g/10a), 5. Besides, the “Herbicidal Effect cockspur” value in data set [4] (40 g/10a) and in data set [4] (80 g/10a) was 1 throughout. In addition, the “Herbicidal Effect onamomi” value in data set [5] (4 g/10a) and in data set [5] (8 g/10a) was 5 throughout. The “Herbicidal Effect ichibi” value in data set [6] (4 g/10a) and in [6] (8 g/10a) was 5 each time. The “Herbicidal Effect garden radish” value with garden radish (40 g/10a) and in the data set on garden radish (80 g/10a) was 5 each time. For the same compound, the “Herbicidal Effect ooinutade” value in data set [7] (4 g/10a) and in data set [7] (8 g/10a) was 5 throughout.

For `CCCCOC(=O)C1=C(C(=O)N(C(=O)CC)c2cc(SCC(=O)OC)c(Cl)cc2F)CCCC1` [compound 35], the “Herbicidal Effect rice” value in the data set with rice (40 g/10a) and in the data set with rice (80 g/10a) was 1 each time. Further, the “Herbicidal Effect aobiyu” value in data set [1] (40 g/10a) and in data set [1] (80 g/10a) was 5 throughout. Further, the “Herbicidal Effect mehishiba” value in data set [2] (40 g/10a) and in data set [2] (80 g/10a) was 1 throughout. Besides, the “Herbicidal Effect noasagao” value in [3] (4 g/10a) was determined as 4; in data set [3] (8 g/10a), 5. Also, the “Herbicidal Effect cockspur” value stood at 1 in data set [4] (40 g/10a) and 2 in data set [4] (80 g/10a). Moreover, the “Herbicidal Effect onamomi” value in data set [5] (4 g/10a) and in data set [5] (8 g/10a) was 4 in each case. For the same compound, the “Herbicidal Effect ichibi” value in [6] (4 g/10a) and in data set [6] (8 g/10a) was 5 throughout. The “Herbicidal Effect garden radish” value in the data set on garden radish (40 g/10a) and in the data set with garden radish (80 g/10a) was 5 each time. Moreover, the “Herbicidal Effect ooinutade” value in [7] (4 g/10a) and in [7] (8 g/10a) was 5 each time.

(Values after patent US6337417B1, “N-phenyltetrahydrophthalamic acid derivatives, methods of producing same, and herbicides containing same as effective components” (Central Glass Co., Ltd., priority 1994, dated 2002).)
